Literature values as cited in patent publication US9956241B2, “Application of American Ginseng to enhance neurocognitive function” (priority 2009, dated 2018).

What was measured:
[1] = tested on: brain serotonin concentrations; conditions: in vivo
[2] = tested on: choline acetyltransferase and nerve growth factor messenger RNA; conditions: rat brains
[3] = tested on: central cholinergic nerve endings
[4] = tested on: LTP in the hippocampal formation; conditions: in vivo; rats
plasma corticosterone = conditions: rodents
[5] = tested on: choline acetyltransferase; conditions: rodent brains
[6] = tested on: synaptosomal uptake of norepinephrine, dopamine, serotonin and GABA
[7] = tested on: human neuronal nicotinic acetylcholine receptors

CC(C)=CCC[C@](C)(O[C@@H]1O[C@H](CO[C@@H]2O[C@H](CO)[C@@H](O)[C@H](O)[C@H]2O)[C@@H](O)[C@H](O)[C@H]1O)[C@H]1CC[C@]2(C)[C@@H]1[C@H](O)C[C@@H]1[C@@]3(C)CC[C@H](O[C@@H]4O[C@H](CO)[C@@H](O)[C@H](O)[C@H]4O[C@@H]4O[C@H](CO)[C@@H](O)[C@H](O)[C@H]4O)C(C)(C)[C@@H]3CC[C@]12C [Rb1, ginsenoside Rb1]
brain serotonin concentrations [1]: marked alterations
expression of choline acetyltransferase and nerve growth factor messenger RNA [2]: increased expression
acetylcholine release and reuptake, number of choline uptake sites ([3]; hippocampus, to a lesser extent cortex): modulation
acetylcholine release ([3]; isolated Rb1): stimulate acetylcholine release
synaptosomal choline uptake ([3]; isolated Rb1): increase synaptosomal choline uptake
LTP in the hippocampal formation [4]: modulation of LTP
stress-induced increases in plasma corticosterone (plasma corticosterone): inhibit
choline acetyltransferase levels [5]: increase choline acetyltransferase levels

CC(C)=CCC[C@](C)(O[C@@H]1O[C@H](CO)[C@@H](O)[C@H](O)[C@H]1O)[C@H]1CC[C@]2(C)[C@@H]1[C@H](O)C[C@@H]1[C@@]3(C)CC[C@H](O)C(C)(C)[C@@H]3[C@@H](O[C@@H]3O[C@H](CO)[C@@H](O)[C@H](O)[C@H]3O)C[C@]12C [Rg1, ginsenoside Rg1]
brain serotonin concentrations [1]: marked alterations
choline acetyltransferase levels [5]: increase choline acetyltransferase levels

CC(C)=CCC[C@](C)(O[C@@H]1O[C@H](CO)[C@@H](O)[C@H](O)[C@H]1O)[C@H]1CC[C@]2(C)[C@@H]1[C@H](O)C[C@@H]1[C@@]3(C)CC[C@H](O)C(C)(C)[C@@H]3[C@@H](O[C@@H]3O[C@H](CO)[C@@H](O)[C@H](O)[C@H]3O[C@@H]3O[C@@H](C)[C@H](O)[C@@H](O)[C@H]3O)C[C@]12C [Re, ginsenoside Re]
synaptosomal uptake of norepinephrine, dopamine, serotonin and GABA [6]: may inhibit

CC(C)=CCC[C@](C)(O[C@@H]1O[C@H](CO)[C@@H](O)[C@H](O)[C@H]1O)[C@H]1CC[C@]2(C)[C@@H]1[C@H](O)C[C@@H]1[C@@]3(C)CC[C@H](O[C@@H]4O[C@H](CO)[C@@H](O)[C@H](O)[C@H]4O[C@@H]4O[C@H](CO)[C@@H](O)[C@H](O)[C@H]4O)C(C)(C)[C@@H]3CC[C@]12C [Rd, ginsenoside Rd]
synaptosomal uptake of norepinephrine, dopamine, serotonin and GABA [6]: may inhibit
corticosterone secretion (corticosterone secretion): affect corticosterone secretion

CC(C)=CCC[C@](C)(O)[C@H]1CC[C@]2(C)[C@@H]1[C@H](O)C[C@@H]1[C@@]3(C)CC[C@H](O)C(C)(C)[C@@H]3[C@@H](O[C@@H]3O[C@H](CO)[C@@H](O)[C@H](O)[C@H]3O[C@@H]3O[C@@H](C)[C@H](O)[C@@H](O)[C@H]3O)C[C@]12C [Rg2, ginsenoside Rg2]
interaction with nicotinic receptor subtypes [7]: direct interaction
